PubChem BioAssay AID850 (SRMLSC, 2007)
Active and inactive are the calls of the source. No rule for the calls is given here.

What was measured:
[1] = yeast lifespan-shortening chemical project counter-assay, dose-response inhibition of growth under permissive conditions (AID 850); conditions: Saccharomyces cerevisiae growth inhibition, permissive control, measured here: maximum growth inhibition, stronger effect = higher value;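 also: growth read as optical density after one day of incubation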
[2] = system: Saccharomyces cerevisiae growth inhibition, permissive control; assay: as above

Compound | IC50 [2] | inhibition ([1]; at 50 µM) | also measured
O=C1c2ccccc2C(=O)c2c1cccc2N1CCOCC1 | > 100 µM (inactive) |  | inhibition ([1]; at 0.195 µM): 13.5%
S=C1SCN(Cc2ccccn2)CN1Cc1ccco1 | 43.4 µM | 55.7% | 
CCn1c2ccccc2c2cc(Nc3cc(C)nc4ncnn34)ccc21 | > 100 µM (inactive) |  | inhibition ([1]; at 6.25 µM): 14.4%
Clc1ccc2[nH]c3c(c2c1)CCc1cn[nH]c1-3 | 5.72 µM |  | inhibition ([1]; at 25 µM): 93.8%
CC(C)CN=Cc1c(O)c([N+](=O)[O-])cc2oc3c(c12)CCCC3 | 41 µM | 60.1% | 
CSC1=NSC2=NC(=O)/C(=C\c3coc4ccccc4c3=O)C(=N)N12 | > 100 µM (inactive) | 19.2% | 
Oc1c(Cl)cc(Cl)c2c1NCCC2 | 15.9 µM | 99.8% | 
Cc1cc(C(=O)COC(=O)c2ccc[nH]c2=O)c(C)n1-c1ccccc1 | 26.9 µM | 67.1% | 
O=c1c(-c2ccc(Cl)cc2)[n+]([O-])c2ccccc2n1O | 7.82 µM |  | inhibition ([1]; at 25 µM): 99.8%
CC1=CC(=O)c2ccccc2C1=O | 17.7 µM | 88.6% | 
Oc1ccc(/C=C/c2nc(-c3ccccc3O)n(-c3ccccc3)n2)cc1 | 47.1 µM | 54.3% | 
O=c1cc(-c2ccccc2)[nH]n1-c1nc2ccccc2[nH]1 | 13.3 µM | 97.3% | 
COc1cc(OC)nc(NC(=O)CS(=O)(=O)c2ccccc2)n1 | 17.4 µM | 77.3% | 
CCCCOc1ccc(C(=O)NNC(=S)NC(=O)CC)cc1 | 24.8 µM | 81.6% | 
COc1cccc(-n2nnnc2S(C)(=O)=O)c1 | 23.9 µM | 83.2% | 
Oc1c(CN2CCN(c3ccccn3)CC2)cc(Cl)c2cccnc12 | 26.5 µM | 95.9% | 
Cc1ccc(CNC(=O)CS(=O)Cc2nc(-c3cccs3)oc2C)cc1 (stereo unspecified) | > 100 µM (inactive) |  | inhibition ([1]; at 0.391 µM): 13.8%
c1ccc2nc3ccccc3nc2c1 | 44.8 µM | 55.6% | 
N#CSCC(=O)c1cccc2ccccc12 | > 100 µM (inactive) |  | inhibition ([1]; at 12.5 µM): 26.9%
O=C(CCSc1nnc(-c2ccncc2)o1)Nc1ccc(Cl)cc1 | 8.46 µM |  | inhibition ([1]; at 12.5 µM): 86.9%
Oc1c(Br)cc(Br)cc1C=Nc1ccc2c(c1)OCO2 | 36.5 µM | 86% | 

Compound | IC50 [2] | inhibition ([1]; at 50 µM) | also measured
CCCCCCCCCCCCCCCC[n+]1cccc(C(=O)N(CC)CC)c1 | 1.82 µM | 101% | 
Cc1cc(C(=O)COC(=O)c2ccc[nH]c2=O)c(C)n1-c1ccc(Br)cc1 | > 100 µM (inactive) | 4.13% | 
CCn1c2ccc(C)cc2c2nc3cc(C(=O)O)ccc3nc21 | 23.9 µM | 75% | 
Cc1cccc(Nc2nc(-c3ccccn3)cs2)n1 | 13.3 µM |  | inhibition ([1]; at 25 µM): 63.1%
O=[N+]([O-])c1ccccc1-c1cc(-c2cc(Cl)ccc2O)n[nH]1 | > 100 µM (inactive) |  | inhibition ([1]; at 12.5 µM): 16.3%
COC1=C(c2ccccc2)C(=O)c2ccccc2C1=O | 19.8 µM | 96.4% | 
CCOC(=O)c1c(N)sc(C(O)(C(F)(F)F)C(F)(F)F)c1-c1ccc(F)cc1 | > 100 µM (inactive) |  | inhibition ([1]; at 0.098 µM): 8.89%
Cc1cccc(CSc2cccc3cccnc23)c1 | 13.8 µM | 99.4% | 
Cc1ccc2nc3c(nc2c1)-c1ccccc1C3=O | > 100 µM (inactive) | 17% | 
Oc1cccc2ccc(/C=C/c3cccs3)nc12 | 37.4 µM | 67.1% | 
Brc1ccccc1-c1nnc(CSc2nnc3sc4ccccc4n23)o1 | > 100 µM (inactive) |  | inhibition ([1]; at 6.25 µM): 13.3%
CC1(CCc2ccccc2)NC(=S)N(c2ccccc2)N1 (stereo unspecified) | 9.11 µM | 99.8% | 
COc1ccc(-c2n[nH]c(C)c2-c2ccc(Cl)cc2)c(O)c1 | 33.9 µM | 99% | 
Cc1oc(-c2ccc3c(c2)OCCO3)cc1C(=O)O | 47.8 µM |  | inhibition ([1]; at 25 µM): 48.3%
Cc1ccc2nc(/C(C#N)=C\c3ccc([N+](=O)[O-])o3)[nH]c2c1 | 9.15 µM | 99.4% | 
Cc1cc(C)cc(NS(=O)(=O)c2cnc(Cl)c(Cl)c2)c1 | > 100 µM (inactive) |  | inhibition ([1]; at 12.5 µM): 19.5%
c1ccc(N(c2ccccc2)c2nc(-n3ccnc3)nc(-n3ccnc3)n2)cc1 | 37.6 µM | 62.1% | 
Cc1ccc(C(=O)c2c(C)oc3c2C(=O)C(=O)c2ccccc2-3)cc1 | 43.6 µM | 95.5% | 
CCOc1cccc(-c2nnc3n2N=C(c2cc(OC)ccc2OC)CS3)c1 | > 100 µM (inactive) |  | inhibition ([1]; at 6.25 µM): 14.8%
Cc1cc(-c2n[nH]c(=S)n2/N=C/c2cc([N+](=O)[O-])ccc2Cl)n[nH]1 | > 100 µM (inactive) |  | inhibition ([1]; at 0.781 µM): -1.78%
Cc1cccc(NC(=O)CC2SC(=O)N(c3ccccc3)C2=O)c1 (stereo unspecified) | > 100 µM (inactive) | -6.43% | 

Compound | IC50 [2] | inhibition ([1]; at 50 µM) | also measured
Oc1c(Br)cc(Br)cc1/C=N/c1nc2c(s1)CCCC2 | 5.27 µM | 98.5% | 
O=Nc1c(O)n(Cc2ccc(Cl)c(Cl)c2)c2ccccc12 | 43.1 µM | 58.3% | 
COc1cccc(C(=O)O/N=C(\N)Cc2ccc(Cl)cc2)c1 | 6.32 µM |  | inhibition ([1]; at 12.5 µM): 97.5%
O=C(COc1ccccc1)N1CCN=C1SCc1cccnc1 | > 100 µM (inactive) |  | inhibition ([1]; at 0.781 µM): 11.2%
CC(Oc1ccc(Cl)cc1Cl)C(=O)NC1=NN(c2ccccc2)C(=O)C1 (stereo unspecified) | 16.6 µM | 98.6% | 
CC(C)(C)c1ccc(C(=O)NC(=S)NNC(=O)c2cccs2)cc1 | 41.7 µM | 53.8% | 
COc1cc(Br)cc(/C=N/c2ncn[nH]2)c1O | 18.3 µM | 97.8% | 
CC1/C(=N/O)CC(c2ccccc2)N(C)C1c1ccccc1 (stereo unspecified) | < 0.098 µM |  | inhibition ([1]; at 25 µM): 94.8%
COc1ccc2nc(/N=C(\N)NC(=O)Nc3ccccc3)nc(C)c2c1 | 33.8 µM | 73.7% | 
CC1CCCC2(C1)NC(=S)c1c(sc3c1CCCC3)N2 (stereo unspecified) | > 100 µM (inactive) |  | inhibition ([1]; at 0.781 µM): 10.2%
Cn1c(=O)c(C(=O)Nc2ncccn2)c(O)c2ccccc21 | 49.9 µM | 56.6% | 
CN1C(=O)c2cccc3c(Cl)ccc(c23)C1=O | > 100 µM (inactive) | 19.1% | 
N#C/C(=C\c1ccc([N+](=O)[O-])o1)c1nc2ccccc2[nH]1 | > 100 µM (inactive) |  | inhibition ([1]; at 6.25 µM): 21.4%
Cc1ccc(N/N=C/c2cccnc2)cc1 | 13 µM | 97% | 
Cc1nc2ccc(NC(=O)c3cc([N+](=O)[O-])cc([N+](=O)[O-])c3Cl)cc2s1 | 15.2 µM | 98.4% | 
C/C(=N\Nc1ccc(Cl)c(Cl)c1)c1ccc(-n2ccnc2)cc1 | 26.7 µM | 96.7% | 
CNc1nnc(-c2cc3cc(Cl)ccc3oc2=O)s1 | > 100 µM (inactive) |  | inhibition ([1]; at 25 µM): 12.5%
CCc1cccc(C)c1NC(=S)NCCc1c(C)[nH]c2ccc(C)cc12 | > 100 µM (inactive) | 8.58% | 
CCOc1cc(N2CCOCC2)c(OCC)cc1NC(=O)COc1cccc2cccnc12 | > 100 µM (inactive) |  | inhibition ([1]; at 0.098 µM): 11.3%
Cc1cccc(/C=C/C(=O)c2cc(Br)ccc(=O)c2O)c1 | 12.2 µM | 83.2% | 
CC(=O)/C(=N\Nc1ccc(C)cc1)N1CCOCC1 | 5.2 µM | 96.4% | 

Compound | IC50 [2] | inhibition ([1]; at 50 µM) | also measured
CCOC(=O)CSc1nnc(CSc2nc(N)c3c(C)c(C)sc3n2)n1-c1ccccc1 | > 100 µM (inactive) |  | inhibition ([1]; at 0.391 µM): 7.59%
COCC(C)OC(=O)/C(C#N)=C\c1coc2ccc(C)cc2c1=O (stereo unspecified) | > 100 µM (inactive) | 16.6% | 
c1ccc(Cc2nnc3sc(-c4ccco4)nn23)cc1 | > 100 µM (inactive) |  | inhibition ([1]; at 25 µM): 4.05%
Cc1ccccc1NC(=S)c1nc2ccccc2[nH]1 | 11.8 µM | 95.3% | 
C=C(C)COc1ccc(-c2[nH]ncc2Oc2ccccc2OC)c(O)c1 | > 100 µM (inactive) |  | inhibition ([1]; at 1.563 µM): -1.35%
O=[N+]([O-])c1cc(CN2CCCC2)c2cccnc2c1O | > 100 µM (inactive) | 21% | 
CCc1ccc(C2NC(=S)NC3=C2C(=O)N(c2ccccc2OC)C(c2ccc(CC)cc2)N3)cc1 (stereo unspecified) | > 100 µM (inactive) |  | inhibition ([1]; at 0.781 µM): 2.18%
CCSc1ncc(/C=N/Nc2ccc(Cl)cc2)n1C | 6.82 µM | 94.7% | 
Cc1cc(N/N=C/c2ccc(Cl)cc2Cl)nc(NCc2ccccc2)n1 | 31.7 µM | 99.2% | 
Cc1noc2ncnc(Sc3ccccc3Cl)c12 | 39.5 µM | 69% | 
Cc1ccc2[nH]c3c(c2c1)CCc1cn[nH]c1-3 | 14.7 µM | 98.6% | 
O=C(Nc1cccc(N=Cc2cc(Br)cc(Br)c2O)c1)c1ccco1 | 11.1 µM | 100% | 
CCCCSc1nc(C)c(C(C)=O)cc1C#N | > 100 µM (inactive) |  | inhibition ([1]; at 12.5 µM): 3.31%
c1ccc(-c2nc(-n3ccnc3)nc(-n3ccnc3)n2)cc1 | > 100 µM (inactive) |  | inhibition ([1]; at 1.563 µM): 17.9%
CCCS(=O)(=O)c1nnnn1-c1cccc(OC)c1 | 5.29 µM | 99% | 
C=CCNC1=C(Cl)C(=O)c2ccccc2C1=O | > 100 µM (inactive) |  | inhibition ([1]; at 25 µM): 18.3%
Cc1cc([N+](=O)[O-])ccc1-c1ccc(C2Nc3ccccc3C(=O)N2O)o1 (stereo unspecified) | > 100 µM (inactive) |  | inhibition ([1]; at 0.781 µM): 3.97%
COc1ccc2c(c1)c1nnc(SC)nc1n2C | 48.3 µM | 63.9% | 
N/C(Cc1ccc(Cl)cc1)=N\OC(=O)c1cccc2ccccc12 | 44.3 µM | 99.6% | 
Cc1sc2ncnc(N/N=C/c3ccccc3O)c2c1C | 32.2 µM | 94.2% | 
